In paper PMC6522510 (Nature Communications, 2019):

Tests used:
Design in all cases: species or system AML cell lines (8); Primary HTS, single concentration about 10 uM, Cell Titer Glo viability; log10 luminescence, per cent inhibition relative to cycloheximide control
Settings in all cases: 72 h, relative to cycloheximide control, log10 luminescence; inhibitor
[1] = test system: M07e
[2] = test system: CMK
[3] = test system: CHRF288-11
[4] = test system: MV4-11
[5] = test system: ML-2
[6] = test system: CMS
[7] = test system: MOLM-13
[8] = test system: U937

| SMILES | M07e %inh [1] [%] | CMK %inh [2] [%] | CHRF288-11 %inh [3] [%] | MV4-11 %inh [4] [%] | ML-2 %inh [5] [%] | CMS %inh [6] [%] | MOLM-13 %inh [7] [%] | U937 %inh [8] [%] |
| --- | --- | --- | --- | --- | --- | --- | --- | --- |
| O=C1NC(=NCCc2ccccn2)S/C1=C\c1ccc2ncccc2c1 [SJ000581148-1] | 10.8 | 25.57 | 5.232 | 45.12 | 2.217 | 10.48 | 58.53 | 2.939 |
| COc1cccc(C2=C(c3cn(C)c4cc(F)ccc34)C(=O)NC2=O)c1 [SJ000581149-1] | 3.649 | -0.7568 | 1.293 | 0.4897 | -0.5942 | 6.064 | 1.739 | 0.6707 |
| Nc1c(C(=O)c2cccc(C(O)(CO)CO)c2)cnn1-c1ccc(F)cc1 [SJ000581150-1] | 0.2609 | -0.6841 | -1.927 | 2.176 | -0.9818 | 0.8259 | 1.373 | -0.03378 |
| CCn1c(=O)c(Oc2ccc(F)cc2F)cc2cnc(NC3CCOCC3)nc21 [SJ000581151-1] | 11.45 | 8.128 | -1.135 | 2.556 | -1.057 | -2.221 | 2.299 | 0.6844 |
| Cc1ccc(C)c(C2=C(c3cn(C)c4ccccc34)C(=O)NC2=O)c1 [SJ000581152-1] | -1.997 | 4.497 | 30.38 | 2.862 | 0.7091 | -1.704 | 2.3 | 4.715 |
| O=C1NC(=NCc2ccccc2Br)S/C1=C\c1ccc2ncccc2c1 [SJ000581153-1] | 7.782 | 1.742 | 2.479 | 3.118 | 3.418 | 1.226 | 2.882 | 5.903 |
| Cn1cc(C2=C(c3cn(C)c4cc(N)ccc34)C(=O)NC2=O)c2ccccc21 [SJ000581154-1] | 38.42 | 105.6 | 40.91 | 66.53 | 25.1 | 49.07 | 77.98 | 39.79 |
| CCc1c(C)nc2sc3c(N)ncnc3c2c1C [SJ000581155-1] | 3.066 | 26.14 | 5.014 | 0.965 | 1.162 | 6.427 | 58.52 | 2.164 |
| Nc1c(C(=O)c2cccc(-c3ccc[n+]([O-])c3)c2)cnn1-c1ccc(F)cc1F [SJ000581156-1] | 5.956 | 6.727 | 0.7431 | 2.306 | 2.597 | -0.9836 | 3.379 | 3.963 |
| CC(CO)Nc1cc(-c2[nH]c3cccnc3c2-c2ccc(F)cc2)ccn1 (centres unmarked) [SJ000581157-1] | 3.935 | 13.38 | 7.035 | 5.71 | 3.05 | 7.57 | 1.967 | 3.658 |
| COc1cc[nH]c1/C=C1\C(=O)Nc2ccc(F)c(C#C[C@@H](O)[C@@H](N)[C@@H](C)O)c21 [SJ000581159-1] | 87.08 | 112.6 | 61.95 | 92.6 | 60.99 | 97.96 | 95.78 | 83.42 |
| Cn1cc(C2=C(c3ccc(N)cc3)C(=O)NC2=O)c2ccccc21 [SJ000581160-1] | 7.926 | 8.525 | 1.792 | 3.731 | 2.229 | 6.332 | 6.461 | 1.651 |
| Cc1ccccc1C1=C(c2cn(C)c3ccccc23)C(=O)NC1=O [SJ000581162-1] | 5.581 | 3.937 | 8.356 | 6.408 | 3.854 | 6.978 | 0.3788 | 0.403 |
| Cn1c(=O)c(-c2ccccc2Cl)cc2cnc(NC3CCOCC3)nc21 [SJ000581163-1] | 8.813 | 15.25 | 6.112 | 5.265 | 1.667 | 7.391 | 7.929 | 4.292 |
| COc1cc(F)c(F)c(F)c1C(=O)c1cnc(NC2CCN(S(C)(=O)=O)CC2)nc1N [SJ000581164-1] | 35.86 | 59.95 | 47.57 | 22.69 | 21.95 | 23.31 | 83.36 | 40.5 |
| Cn1cc(C2=C(c3cn(CCCCCN)c4ccccc34)C(=O)NC2=O)c2ccccc21 [SJ000581165-1] | 4.895 | 0.6124 | 2.441 | 1.637 | 1.663 | 0.9818 | 2.139 | 0.4783 |
| O=C1OC(=O)C(c2c[nH]c3ccccc23)=C1c1c[nH]c2ccccc12 [SJ000581166-1] | -1.376 | 0.5161 | 5.422 | 1.035 | 2.957 | 5.505 | 3.376 | 1.32 |
| NC1=NC(=O)/C(=C/c2ccc3ncccc3c2)S1 [SJ000581167-1] | -0.544 | 14.91 | 7.843 | 20.86 | 6.393 | 1.297 | 12.5 | 10.35 |
| COc1ccc(N2Cc3cnc(Nc4ccccc4)nc3N([C@@H]3CC[C@@H](O)C3)C2=O)cc1 [SJ000581169-1] | 3.499 | 31.32 | 84.91 | 9.017 | 3.259 | -0.5577 | 15.09 | 3.756 |
| CN1CCN(CCc2cccc(C(=O)c3cnn(-c4ccc(F)cc4)c3N)c2)CC1 [SJ000581170-1] | 1.993 | 6.346 | -2.499 | 3.349 | 2.973 | 1.769 | 4.249 | 7.701 |
| Cn1c(=O)c(Oc2ccccc2)cc2cnc(NC3CCOCC3)nc21 [SJ000581171-1] | 1.8 | 8.741 | 9.708 | 4.76 | 2.493 | 6.487 | 4.705 | 5.834 |
| Nc1c(C(=O)c2cccc(-c3ccncc3)c2)cnn1-c1ccc(F)cc1 [SJ000581172-1] | 6.562 | 6.56 | -2.059 | 2.351 | 3.419 | 2.678 | 5.84 | 13.25 |
| Cc1[nH]nc2c1N=C(c1ccccc1Cl)c1cc([N+](=O)[O-])ccc1N2 [SJ000581173-1] | 57.3 | 116.1 | 37.73 | 86.62 | 56.78 | 91.81 | 62.4 | 91.37 |
| Nc1c(C(=O)c2ccc(C#CCN3CCOCC3)cc2)cnn1-c1ccc(F)cc1 [SJ000581175-1] | -0.05766 | 5.964 | -0.8034 | 6.7 | -0.5007 | 1.749 | 6.812 | 8.015 |
| CNCCCn1cc(C2=C(c3cn(C)c4ccccc34)C(=O)NC2=O)c2ccccc21 [SJ000581176-1] | 23.08 | 37.79 | 23.82 | 44.21 | 2.284 | 6.195 | 86.21 | 9.304 |
